Test results: US5422350A, “Nitrogen substituted acridine and cytochrome P450 inhibitors and methods of use” (priority 1992, dated 1995)
Where two headings read alike, the source gives them in different places.

Key:
[1] = Irreversible protein binding of 14C-tacrine-derived radioactivity, rat liver microsomes; conditions: for effect on irreversible protein binding / Tacrine equivalents irreversibly bound to 1 mg microsomal protein: MC induced Rat, 60 min; for Tacrine equivalents irreversibly bound to 1 mg microsomal protein: N = 3; for effect of pretreatment on binding: rat
Method: (§1) Total reaction volume was 3 mL. Reactions were stopped by freezing in liquid nitrogen or dry-ice acetone. […] D. J. Waxman and L. Axaroff, "Phenobarbital induction of cytochrome P-450 Gene Expression", BIOCHEM J, Vol. 281, pp. 577-592 (1992); P. Soucek and I. Gut, supra.
(§2) C. N. Martin and R. C. Garner: "Covalent Binding In Vitro and In Vivo" in BIOCHEMICAL TOXICOLOGY: A PRACTICAL APPROACH, Eds. K. Snell and B. Mullock, IRL, Wash. D.C. pp. 109-126 (1987).

[2] = In vitro metabolism of 14C-tacrine in rat liver microsomes; conditions: microsomes from pretreated rats vs control
Method: as §1

[3] = system: ethoxyresorufin O-deethylase; conditions: rat liver microsomes, Back et al. (1983); cited from earlier work
[4] = system: P450 1A2; conditions: cited from earlier work
[5] = Clinical interaction, theophylline with tacrine; type: in vivo, human; conditions: single 158-mg theophylline with repeated 20-mg tacrine
Text: M. E. Campbell, D. M. Grant, T. Inaba, and W. Kalow, "Biotransformation of Caffeine, Paraxanthine, Theophylline, and Theobromine by polycyclic Aromatic Hydrocarbon-Inducible Cytochrome(s) P-450 in Human Liver Microsomes", DRUG METAB. DISPOS. Vol. 15, pp. 237-249 (1987). Therefore, a potential explanation for the theophylline-tacrine clinical interaction is competition for the same P450 1A2 enzymes.

[6] = Irreversible protein binding of 14C-tacrine-derived radioactivity, human liver microsomes; conditions: for effect on irreversible protein binding / Tacrine equivalents irreversibly bound to 1 mg microsomal protein: Human Prep B, 60 min; for Tacrine equivalents irreversibly bound to 1 mg microsomal protein: N = 3
Method: as §1, §2

[7] = system: hepatocytes from MC induced male rats; test: Irreversible binding of 14C-tacrine and 14C-1-hydroxytacrine in MC induced rat hepatocytes; type: in vitro ADME; conditions: for inhibition of irreversible binding for both tacrine and 1-hydroxytacrine: relative ranking
[8] = system: P450 2D6; conditions: cited from earlier work
[9] = target: T1, P450 1A2 (Homo sapiens, UniProt P05177); test: in vitro
T1 sequence (P05177 2-516 limits assumed): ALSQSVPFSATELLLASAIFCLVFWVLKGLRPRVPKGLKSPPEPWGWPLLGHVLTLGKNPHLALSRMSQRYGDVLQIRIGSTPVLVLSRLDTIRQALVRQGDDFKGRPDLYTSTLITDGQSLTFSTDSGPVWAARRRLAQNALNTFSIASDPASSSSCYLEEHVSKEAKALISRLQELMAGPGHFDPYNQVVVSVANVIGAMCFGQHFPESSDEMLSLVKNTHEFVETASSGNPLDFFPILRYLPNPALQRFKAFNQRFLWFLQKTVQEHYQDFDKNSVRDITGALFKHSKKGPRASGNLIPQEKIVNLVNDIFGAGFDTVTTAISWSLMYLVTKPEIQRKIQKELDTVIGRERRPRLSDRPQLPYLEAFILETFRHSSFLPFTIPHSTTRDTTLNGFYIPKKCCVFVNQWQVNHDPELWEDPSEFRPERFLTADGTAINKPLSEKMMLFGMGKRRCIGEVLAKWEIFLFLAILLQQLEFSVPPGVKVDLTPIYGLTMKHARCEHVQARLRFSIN
Method: (§3) PHARMACOL., Vol. 42, pp. 767-772 (1990) was conducted. […] The effect of various enoxacin concentrations (8, 20, and 50 μM) on the extent of irreversible binding was examined in a separate study.

[10] = system: P450 1A2; test: in vitro; conditions: for 1-hydroxytacrine equivalents irreversibly bound to 1 mg microsomal protein: 1-hydroxytacrine 0.5 μM
Method: as §3

[11] = Single-dose pharmacokinetic and metabolic disposition study of [14C]tacrine HCl in human male volunteers; type: in vivo; conditions: for mean AUC(O-tldc), dose proportionality: 10 and 40 mg oral, plasma
Method: Plasma and red blood cells (RBC) were collected predose and for 48 hours postdose. Urine and feces were collected predose and for 96 hours postdose. Urine and plasma samples were analyzed directly by liquid scintillation spectrometry while RBC and fecal samples were solubilized prior to counting. […] Metabolic profiling of urine was performed by HPLC radioactivity detection. Metabolites were identified by HPLC/photodiode array/mass spectrometry.

[12] = Clinical drug interaction study, tacrine with cimetidine; type: in vivo, human; conditions: 40 mg tacrine with 300-mg four times a day cimetidine vs tacrine alone
Text: A. Somogyi and M. Muirhead, "Pharmacokinetic Interactions of Cimetidine", CLIN. PHARMACOKIN., Vol. 12, pp. 321-366 (1987).

[13] = 1-hydroxytacrine 10 uM + inhibitor 50 uM
[14] = tacrine 10 uM + inhibitor 50 uM
[15] = 20 min, read-out: inhibition of 1-hydroxytacrine irreversible binding
[16] = 20 min, read-out: inhibition of tacrine irreversible binding

Cc1ccc2cc3c(ccc4ccccc43)c3c2c1CC3 [MC, 3-methylcholanthrene]
increase in binding compared to control rat ([1]; MC induced rat): ~3 fold
effect of pretreatment (induction) on 1-hydroxytacrine formation [2]: Less 1-hydroxytacrine was observed

CCN(CC)CCCC(C)Nc1ccnc2cc(Cl)ccc12 (stereo not shown) [Chloroquine, 7-chloro-4-(4-diethylamino-1-methylbutylamino)quinoline]
inhibition of ethoxyresorufin O-deethylase activity [3]: inhibitors of ethoxyresorufin O-deethylase activity

COc1cc(NC(C)CCCN)c2ncccc2c1 (stereo not shown) [Primaquine, 8-(4-amino-1-methylbutylamino)-6-methoxyquinoline]
inhibition of ethoxyresorufin O-deethylase activity [3]: inhibitors of ethoxyresorufin O-deethylase activity

CN/C(=N/CCSCc1nc[nH]c1C)NC#N [Cimetidine, N-cyano-N'-methyl-N"-[2[[(5-methyl-1H-imidazol-4-yl)methyl]thio]ethyl]guanidine]
inhibition of P450 enzymes including P450 1A2 [4]: inhibitor of P450 enzymes including P450 1A2

Cn1c(=O)c2[nH]cnc2n(C)c1=O [Theophylline]
major route of clearance [4]: metabolism by P450 1A2
increase in theophylline elimination half-life [5]: two-fold

N[C@@H](CCC(=O)N[C@@H](CS)C(=O)NCC(=O)O)C(=O)O [Glutathione]
detectable adducts with the reactive intermediate [6]: failed to produce detectable adducts
effect on irreversible binding [6]: dramatic reduction in irreversible binding
effect on irreversible protein binding ([6]; with GSH (5 mM)): 85.0
Tacrine equivalents irreversibly bound to 1 mg microsomal protein ([6]; with GSH (5 mM)): 0.031 ± 0.001 nmol
irreversible binding of 1-hydroxytacrine-derived radioactivity, Percent Control Value ([7]; 1-hydroxytacrine 10 uM + glutathione 5 mM): 49.1%
irreversible binding of tacrine-derived radioactivity, Percent Control Value ([7]; tacrine 10 uM + glutathione 5 mM): 62.6%
effect on irreversible protein binding ([1]; with GSH (5 mM)): 58.3
Tacrine equivalents irreversibly bound to 1 mg microsomal protein ([1]; with GSH (5 mM)): 0.058 ± 0.005 nmol

Nc1c2c(nc3ccc(O)cc13)CCCC2 [7-Hydroxytacrine, 7-hydroxytacrine]
levels over time ([6]; time course through 1 hour): levels rise then fall over time

Cc1nc2c([nH]1)c(=O)n(C)c(=O)n2Cc1ccco1 [Furafylline, 1H-purine-2,6-dione, 3-(2-furanylmethyl)-3,7-dihydro-1,8-dimethyl]
irreversible binding of 1-hydroxytacrine-derived radioactivity, Percent Control Value [7, 13]: 31.7%
inhibition of irreversible binding for both tacrine and 1-hydroxytacrine [7]: most effective inhibitor
irreversible binding of tacrine-derived radioactivity, Percent Control Value [7, 14]: 31.6%

NNC(=O)c1ccncc1 [Isoniazid]
effect of pretreatment on binding [1]: little or no effect on binding
effect of pretreatment (induction) on 1-hydroxytacrine formation [2]: markedly increased 1-hydroxytacrine formation

C=C[C@H]1C[N@@]2CC[C@H]1C[C@@H]2[C@@H](O)c1ccnc2ccc(OC)cc12 [Quinidine]
P450 2D6 inhibition [8]: inhibitor of P450 2D6

CCC1(c2ccccc2)C(=O)NC(=O)NC1=O [Phenobarbital]
effect of pretreatment on binding [1]: little or no effect on binding
effect of pretreatment (induction) on 1-hydroxytacrine formation [2]: only a minimal effect on 1-hydroxytacrine formation

CCn1cnc(C(=O)NC)c1C(=O)NC [Ethimizol]
irreversible binding of 1-hydroxytacrine-derived radioactivity, Percent Control Value [7, 13]: 65.6%
inhibition of irreversible binding for both tacrine and 1-hydroxytacrine [7]: less of an effect
irreversible binding of tacrine-derived radioactivity, Percent Control Value [7, 14]: 80.1%

CCn1cc(C(=O)O)c(=O)c2cc(F)c(N3CCNCC3)nc21 [Enoxacin]
inhibition of tacrine irreversible binding and biotransformation ([9]; 50 μM enoxacin vs 8, 20 μM): greatest inhibition
inhibition at 8 µM [9, 15]: 8.2%
inhibition at 20 µM [9, 15]: 22.2%
inhibition at 50 µM [9, 15]: 51.7%
inhibition at 8 µM [9, 16]: 14.4%
inhibition at 20 µM [9, 16]: 29.8%
inhibition at 50 µM [9, 16]: 43.4%
effect on the binding of 1-hydroxytacrine ([9]; enoxacin 8, 20, 50 μM): inhibitory effect
inhibition at 50 µM ([9]; read-out: inhibition of extent of irreversible binding (maximum)): ≤ 73%
1-hydroxytacrine equivalents irreversibly bound to 1 mg microsomal protein ([10]; enoxacin 8.0, 20 min): 0.017 ± 0.001
1-hydroxytacrine equivalents irreversibly bound to 1 mg microsomal protein ([10]; enoxacin 20.0, 20 min): 0.014 ± 0.001
1-hydroxytacrine equivalents irreversibly bound to 1 mg microsomal protein ([10]; enoxacin 50.0, 20 min): 0.009 ± 0.001
Tacrine equivalents irreversibly bound to 1 mg microsomal protein ([10]; Table 6, tacrine 0.3 μM, line below enoxacin 50.0 (concentration not given), 20 min): 0.023 ± 0.002
Tacrine equivalents irreversibly bound to 1 mg microsomal protein ([10]; Table 6, tacrine 0.3 μM, line of enoxacin 20.0, 20 min): 0.036 ± 0.008
Tacrine equivalents irreversibly bound to 1 mg microsomal protein ([10]; Table 6, tacrine 0.3 μM, line of enoxacin 50.0, 20 min): 0.028 ± 0.001
Tacrine equivalents irreversibly bound to 1 mg microsomal protein ([10]; tacrine 0.5 μM + enoxacin 50 μM, 5 min): 0.009 ± 0.002 nmol
Tacrine equivalents irreversibly bound to 1 mg microsomal protein ([10]; tacrine 0.5 μM + enoxacin 50 μM, 10 min): 0.017 ± 0.003 nmol
Tacrine equivalents irreversibly bound to 1 mg microsomal protein ([10]; tacrine 0.5 μM + enoxacin 50 μM, 20 min): 0.026 ± 0.002 nmol
Tacrine equivalents irreversibly bound to 1 mg microsomal protein ([10]; tacrine 0.5 μM + enoxacin 50 μM, 45 min): 0.052 ± 0.006 nmol
irreversible binding of 1-hydroxytacrine-derived radioactivity, Percent Control Value [7, 13]: 79.8%
inhibition of irreversible binding for both tacrine and 1-hydroxytacrine [7]: less of an effect
irreversible binding of tacrine-derived radioactivity, Percent Control Value [7, 14]: 78.9%
P450 1A2 inhibition [4]: selective inhibitor of P450 1A2

Nc1c2c(nc3ccccc13)CCC(O)C2 (stereo not shown) [2-hydroxytacrine]
mean AUC(O-tldc), dose proportionality [11]: increased greater than dose proportionally

Nc1c2c(nc3ccccc13)CCCC2O (stereo not shown) [1-Hydroxytacrine, 1-hydroxytacrine]
irreversible binding to human microsomal protein ([10]; 1-hydroxytacrine): found to bind irreversibly
1-hydroxytacrine equivalents irreversibly bound to 1 mg microsomal protein ([10]; enoxacin 0.0, 20 min): 0.018 ± 0.001
irreversible binding of derived radioactivity to microsomal protein ([10]; Table 6, deletion of NADPH): no irreversible
higher plasma concentrations [12]: approximately 40%
mean AUC(O-tldc), dose proportionality [11]: increased greater than dose proportionally
elimination rate from plasma ([11]; all volunteers): appeared to be limited by the rate of formation
excretion and 1-hydroxytacrine plasma concentrations in cigarette smokers ([11]; smokers compared to nonsmokers): decreased excretion and lower 1-hydroxytacrine plasma concentrations

B1: EH: human liver expoxide hydrase (EH) (protein, UniProt P07099 1-455, looked up)
Epoxide hydrolase 1: MWLEILLTSVLGFAIYWFISRDKEETLPLEDGWWGPGTRSAAREDDSIRPFKVETSDEEIHDLHQRIDKFRFTPPLEDSCFHYGFNSNYLKKVISYWRNEFDWKKQVEILNRYPHFKTKIEGLDIHFIHVKPPQLPAGHTPKPLLMVHGWPGSFYEFYKIIPLLTDPKNHGLSDEHVFEVICPSIPGYGFSEASSKKGFNSVATARIFYKLMLRLGFQEFYIQGGDWGSLICTNMAQLVPSHVKGLHLNMALVLSNFSTLTLLLGQRFGRFLGLTERDVELLYPVKEKVFYSLMRESGYMHIQCTKPDTVGSALNDSPVGLAAYILEKFSTWTNTEFRYLEDGGLERKFSLDDLLTNVMLYWTTGTIISSQRFYKENLGQGWMTQKHERMKVYVPTGFSAFPFELLHTPEKWVRFKYPKLISYSYMVRGGHFAAFEEPELLAQDIRKFLSVLERQ
detectable adducts with the reactive intermediate [6]: failed to produce detectable adducts
effect on irreversible binding ([6]; 14C tacrine incubations (Table 3, human and rat)): only a slight decrease in binding
effect on irreversible protein binding ([6]; with EH (100 ug)): 35.3
Tacrine equivalents irreversibly bound to 1 mg microsomal protein ([6]; with EH (100 ug)): 0.134 ± 0.026 nmol
effect on irreversible protein binding ([1]; with EH (100 ug)): 16.6
Tacrine equivalents irreversibly bound to 1 mg microsomal protein ([1]; with EH (100 ug)): 0.116 ± 0.007 nmol
